In assay [1] the target is T1, WT B‐RAF (Homo sapiens, UniProt P15056).
T1 construct: gene BRAF; overexpressed in HEK293 cells, immunoprecipitated
The assay can be described thus: TR-FRET kinase assay, MEK1 (K97R) substrate. Type of assay: biochemical.

The target of another assay is T2, WT C‐RAF (Homo sapiens, UniProt P04049).
T2 construct: gene RAF1; overexpressed in HEK293 cells, immunoprecipitated
The assay can be described thus: TR-FRET kinase assay, MEK1 (K97R) substrate. Format: biochemical.

The target in assay [2] is T3, WT B‐RAF (Homo sapiens, UniProt P15056, V600E).
T3 construct: gene BRAF; overexpressed in HEK293 cells, immunoprecipitated
T3 sequence (P15056 2-766 V600E): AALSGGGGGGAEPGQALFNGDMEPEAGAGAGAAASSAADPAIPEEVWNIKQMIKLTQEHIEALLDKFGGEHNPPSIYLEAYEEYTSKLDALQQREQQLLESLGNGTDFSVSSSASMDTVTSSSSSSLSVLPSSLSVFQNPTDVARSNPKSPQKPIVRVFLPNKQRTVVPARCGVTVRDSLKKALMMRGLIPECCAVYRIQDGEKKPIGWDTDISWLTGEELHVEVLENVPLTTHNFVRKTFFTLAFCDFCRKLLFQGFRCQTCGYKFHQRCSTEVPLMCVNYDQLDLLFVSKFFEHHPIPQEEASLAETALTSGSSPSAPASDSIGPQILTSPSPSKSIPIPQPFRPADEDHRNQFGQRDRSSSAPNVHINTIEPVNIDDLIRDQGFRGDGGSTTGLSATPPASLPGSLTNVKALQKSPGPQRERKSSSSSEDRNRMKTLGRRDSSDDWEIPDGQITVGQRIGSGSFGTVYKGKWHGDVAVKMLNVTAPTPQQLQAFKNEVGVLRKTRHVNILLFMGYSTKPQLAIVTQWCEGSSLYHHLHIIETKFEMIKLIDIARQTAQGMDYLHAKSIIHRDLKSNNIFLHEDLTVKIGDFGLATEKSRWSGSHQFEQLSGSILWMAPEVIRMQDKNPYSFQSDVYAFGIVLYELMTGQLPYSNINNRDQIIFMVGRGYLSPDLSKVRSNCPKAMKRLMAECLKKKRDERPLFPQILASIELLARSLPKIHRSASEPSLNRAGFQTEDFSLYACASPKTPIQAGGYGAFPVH
The assay can be described thus: TR-FRET kinase assay, MEK1 (K97R) substrate. Type of assay: biochemical.

A further assay addresses EGFR (Homo sapiens, UniProt P00533). The assay is described as follows: biochemical kinase assay (details not told). From the text:
biochemical kinase assay (details not told) on EGFR | Biochemical activity of compound C against WT B‐RAF, B‐RAF^V600E, C‐RAF, and EGFR

The mark [3] stands for this setting: read-out: BGB-283 IC50 (nM) / 1 h.
Setting [4] is: 1 mM ATP, 1 h pre-incubation, room temperature, time-dependent inhibition (6 h and 24 h pre-incubation also tested), read-out: Compound C IC50 (nM) / 1 h.

Consider two molecules from PMC7400788, “RAF dimer inhibition enhances the antitumor activity of MEK inhibitors in K‐RAS mutant tumors” (Molecular Oncology, 2020).

Read-outs that look alike come from different tables or passages of the source.

T1 sequence (P15056 2-766): as the sequence (P15056 2-766 V600E) above, with E599V counted along it
T2 sequence (P04049 whole entry): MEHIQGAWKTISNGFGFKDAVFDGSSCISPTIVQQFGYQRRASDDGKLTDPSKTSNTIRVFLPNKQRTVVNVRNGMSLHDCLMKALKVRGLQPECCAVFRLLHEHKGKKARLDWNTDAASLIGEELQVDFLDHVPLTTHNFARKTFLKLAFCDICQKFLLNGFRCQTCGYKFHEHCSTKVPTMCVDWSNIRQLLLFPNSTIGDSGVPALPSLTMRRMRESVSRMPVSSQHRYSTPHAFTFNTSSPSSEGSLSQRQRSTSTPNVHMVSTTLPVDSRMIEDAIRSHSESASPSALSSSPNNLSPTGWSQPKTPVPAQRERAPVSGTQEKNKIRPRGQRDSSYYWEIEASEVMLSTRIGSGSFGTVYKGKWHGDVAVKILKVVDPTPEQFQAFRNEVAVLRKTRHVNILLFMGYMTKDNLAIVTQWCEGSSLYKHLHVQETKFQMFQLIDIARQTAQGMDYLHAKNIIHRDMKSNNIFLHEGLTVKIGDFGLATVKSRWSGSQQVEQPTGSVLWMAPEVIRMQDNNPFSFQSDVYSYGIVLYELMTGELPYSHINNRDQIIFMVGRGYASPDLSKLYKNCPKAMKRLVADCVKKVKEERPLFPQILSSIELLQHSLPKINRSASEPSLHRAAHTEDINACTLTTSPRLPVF
Chain of EGFR (P00533 25-1210): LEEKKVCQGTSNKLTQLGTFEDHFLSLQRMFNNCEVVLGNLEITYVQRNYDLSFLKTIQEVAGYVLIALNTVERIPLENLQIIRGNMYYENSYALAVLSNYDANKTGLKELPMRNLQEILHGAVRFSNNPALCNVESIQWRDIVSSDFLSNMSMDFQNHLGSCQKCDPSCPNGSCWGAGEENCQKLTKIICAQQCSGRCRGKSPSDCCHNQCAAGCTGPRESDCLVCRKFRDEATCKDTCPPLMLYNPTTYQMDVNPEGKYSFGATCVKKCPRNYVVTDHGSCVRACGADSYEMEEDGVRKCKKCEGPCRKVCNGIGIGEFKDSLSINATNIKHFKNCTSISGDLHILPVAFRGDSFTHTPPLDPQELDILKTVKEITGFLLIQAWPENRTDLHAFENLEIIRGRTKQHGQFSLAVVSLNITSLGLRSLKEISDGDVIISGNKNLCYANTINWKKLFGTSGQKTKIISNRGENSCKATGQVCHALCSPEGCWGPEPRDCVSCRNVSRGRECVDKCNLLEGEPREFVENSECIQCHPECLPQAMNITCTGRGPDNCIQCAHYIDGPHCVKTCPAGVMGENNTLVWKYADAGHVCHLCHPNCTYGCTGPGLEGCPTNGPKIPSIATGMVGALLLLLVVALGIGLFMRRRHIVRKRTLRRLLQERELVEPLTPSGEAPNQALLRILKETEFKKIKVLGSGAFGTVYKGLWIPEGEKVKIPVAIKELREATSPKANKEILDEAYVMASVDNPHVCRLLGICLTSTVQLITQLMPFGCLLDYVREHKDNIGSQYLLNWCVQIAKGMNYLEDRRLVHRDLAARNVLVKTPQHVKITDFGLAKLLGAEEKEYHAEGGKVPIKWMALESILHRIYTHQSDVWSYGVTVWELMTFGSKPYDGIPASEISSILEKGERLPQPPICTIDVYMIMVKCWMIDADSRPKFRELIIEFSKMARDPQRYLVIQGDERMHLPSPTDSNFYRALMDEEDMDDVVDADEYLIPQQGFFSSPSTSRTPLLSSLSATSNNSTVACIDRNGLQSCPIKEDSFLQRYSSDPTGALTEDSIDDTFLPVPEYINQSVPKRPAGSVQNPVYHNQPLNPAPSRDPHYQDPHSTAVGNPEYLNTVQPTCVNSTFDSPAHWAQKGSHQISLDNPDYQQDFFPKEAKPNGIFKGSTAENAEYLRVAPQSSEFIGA

For the molecule `O=C1CCc2c(Oc3ccc4c(c3)[C@@H]3[C@H](O4)[C@H]3c3nc4ccc(C(F)(F)F)cc4[nH]3)ccnc2N1` [BGB‐283], the IC50 was 2310 nM at WT B‐RAF [1] (setting [3]), 122 nM at WT C‐RAF (setting [3]) and 49 nM at WT B‐RAF [2] (setting [3]).

With `c1cc(-c2cnn3cc(-c4ccc(OCCN5CCCCC5)cc4)cnc23)ccn1` [compound C], the IC50 at EGFR amounted to 1270 nM; at WT B‐RAF [1] (setting [4]), 24 nM; at WT C‐RAF (setting [4]), 2.4 nM; on WT B‐RAF [2] (setting [4]), 1.6 nM.
